#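 Values below derive from 48-hour exposures of cells grown in 96-well plates, with endpoints linearly interpolated between the two concentrations bracketing the appropriate inhibition level. Here, GI50 denotes the concentration required for 50% inhibition of growth.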 Active and inactive are the calls of the source. No stated cut-off is given here; in the data, active = GI50 up to about 1.1 µM and inactive = higher. Where a SMILES comes first, the peptide text is derived from it.
# How the values were obtained:
# Assay in all cases: DTP human tumour cell line panel, 48 h
# NCI-H23 = test system: NCI-H23
# HOP-62 = test system: HOP-62
# M19-MEL = test system: M19-MEL
# SNB-19 = test system: SNB-19
# OVCAR-3 = test system: OVCAR-3
# CCRF-CEM = test system: CCRF-CEM
# SF-295 = test system: SF-295
# SK-OV-3 = test system: SK-OV-3
# NCI-H226 = test system: NCI-H226
# HCT-15 = test system: HCT-15
# LXFL 529 = test system: LXFL 529
# SK-MEL-28 = test system: SK-MEL-28
# 786-0 = test system: 786-0
# OVCAR-8 = test system: OVCAR-8
# U-251 = test system: U-251
SMILES,GI50 (NCI-H23),GI50 (HOP-62),GI50 (M19-MEL),GI50 (SNB-19),GI50 (OVCAR-3),GI50 (CCRF-CEM),GI50 (SF-295),GI50 (SK-OV-3),GI50 (NCI-H226),GI50 (HCT-15) [µM],GI50 (LXFL 529),GI50 (SK-MEL-28),GI50 (786-0),GI50 (OVCAR-8),GI50 (U-251)
O=C(c1cccs1)N(C(=S)N1CCN(c2ccccn2)CC1)c1ccccc1,> 100 µM (inactive),> 100 µM (inactive),81.1 µM (inactive),> 100 µM (inactive),> 100 µM (inactive),> 100 µM (inactive),80.4 µM (inactive),> 100 µM (inactive),29 µM (inactive),61,39.4 µM (inactive),> 100 µM (inactive),> 100 µM (inactive),81.7 µM (inactive),> 100 µM (inactive)
COc1cc2c(cc1OCc1ccccc1)CNCC2,> 100 µM (inactive),> 100 µM (inactive),> 100 µM (inactive),> 100 µM (inactive),> 100 µM (inactive),> 100 µM (inactive),> 100 µM (inactive),> 100 µM (inactive),> 100 µM (inactive),> 100,> 100 µM (inactive),> 100 µM (inactive),> 100 µM (inactive),> 100 µM (inactive),> 100 µM (inactive)
O=C(c1nc2ccc(Cl)cc2[nH]c1=O)C(O)c1cccc([N+](=O)[O-])c1 (stereo not drawn),> 100 µM (inactive),> 100 µM (inactive),> 100 µM (inactive),> 100 µM (inactive),> 100 µM (inactive),5.06 µM (inactive),> 100 µM (inactive),> 100 µM (inactive),> 100 µM (inactive),> 100,> 100 µM (inactive),26.7 µM (inactive),> 100 µM (inactive),> 100 µM (inactive),> 100 µM (inactive)
NC(=S)N1N=C2CCCCCC[C@@H]2[C@H]1c1ccccc1,40.2 µM (inactive),> 100 µM (inactive),38.5 µM (inactive),63.1 µM (inactive),39.3 µM (inactive),31.3 µM (inactive),35.3 µM (inactive),> 100 µM (inactive),18.6 µM (inactive),28.4,40 µM (inactive),89.7 µM (inactive),67 µM (inactive),44.5 µM (inactive),46 µM (inactive)
c1ccc2c(c1)CCc1cc3cc4c(nc3nc1-2)-c1ccccc1CC4,> 100 µM (inactive),> 100 µM (inactive),> 100 µM (inactive),> 100 µM (inactive),> 100 µM (inactive),> 100 µM (inactive),> 100 µM (inactive),> 100 µM (inactive),> 100 µM (inactive),> 100,> 100 µM (inactive),> 100 µM (inactive),83 µM (inactive),> 100 µM (inactive),> 100 µM (inactive)
Cc1ccc(Cl)c2c(=O)cc(-c3ccccc3)[nH]c12,59.7 µM (inactive),54.3 µM (inactive),68.7 µM (inactive),–,–,52.7 µM (inactive),55.8 µM (inactive),> 100 µM (inactive),48.3 µM (inactive),46.2,41.7 µM (inactive),> 100 µM (inactive),> 100 µM (inactive),> 100 µM (inactive),88.5 µM (inactive)
CCC(C)C1NC(=O)C2CCCN2C(=O)CNC(=O)C(C)NC(=O)C(Cc2ccccc2)NC(=O)C(C(C)C)NC1=O (stereo not drawn) (cyclo(GPIVFA); configuration not given here),> 100 µM (inactive),> 100 µM (inactive),> 100 µM (inactive),> 100 µM (inactive),> 100 µM (inactive),–,> 100 µM (inactive),> 100 µM (inactive),> 100 µM (inactive),> 100,> 100 µM (inactive),> 100 µM (inactive),> 100 µM (inactive),> 100 µM (inactive),> 100 µM (inactive)
COC(=O)c1nc(-c2ccc(Cl)c(Cl)c2)nc2ccccc12,57.9 µM (inactive),14.3 µM (inactive),> 100 µM (inactive),5.89 µM (inactive),14.5 µM (inactive),> 100 µM (inactive),12 µM (inactive),9.91 µM (inactive),13.7 µM (inactive),> 100,> 27.1 µM (inactive),> 59.3 µM (inactive),21.6 µM (inactive),14.5 µM (inactive),21.2 µM (inactive)
O=C1C(Cl)=C(NCCOCCO)C(=O)c2c(O)ccc(O)c21,1.88 µM (inactive),20 µM (inactive),1.81 µM (inactive),–,–,–,11.6 µM (inactive),17.3 µM (inactive),18.3 µM (inactive),1.85,7.62 µM (inactive),–,4.97 µM (inactive),7.36 µM (inactive),17 µM (inactive)
ClC(Cl)=C(Cl)C1(Cl)CC1COCc1ccccc1 (stereo not drawn),25.2 µM (inactive),25.9 µM (inactive),31.4 µM (inactive),36.9 µM (inactive),22.6 µM (inactive),22.3 µM (inactive),25.5 µM (inactive),39.4 µM (inactive),22.4 µM (inactive),33.3,51.6 µM (inactive),56.2 µM (inactive),44.3 µM (inactive),33.1 µM (inactive),–
O=C1C=C(c2[nH]c3ccccc3c2C2=CC(=O)c3ccccc3C2=O)C(=O)c2ccccc21,41.3 µM (inactive),–,17.3 µM (inactive),70.1 µM (inactive),21.6 µM (inactive),16.8 µM (inactive),36.1 µM (inactive),54.1 µM (inactive),61.7 µM (inactive),–,37.3 µM (inactive),57 µM (inactive),> 100 µM (inactive),43.8 µM (inactive),32.8 µM (inactive)
CC1=C(C(=O)Nc2ccccc2C)C(c2ccco2)C(C(=O)Nc2ccccc2C)=C(C)N1C,> 100 µM (inactive),> 100 µM (inactive),> 100 µM (inactive),> 100 µM (inactive),> 100 µM (inactive),50 µM (inactive),> 100 µM (inactive),> 100 µM (inactive),> 100 µM (inactive),–,> 100 µM (inactive),> 100 µM (inactive),> 100 µM (inactive),> 100 µM (inactive),> 100 µM (inactive)
CCc1cccc(C)c1NC(C)=O,> 100 µM (inactive),> 100 µM (inactive),> 100 µM (inactive),–,> 100 µM (inactive),> 100 µM (inactive),> 100 µM (inactive),> 100 µM (inactive),> 100 µM (inactive),> 100,> 100 µM (inactive),> 100 µM (inactive),> 100 µM (inactive),> 100 µM (inactive),> 100 µM (inactive)
NCCCOc1ccc([N+](=O)[O-])cc1Cl,> 100 µM (inactive),71.1 µM (inactive),> 100 µM (inactive),> 100 µM (inactive),> 100 µM (inactive),42.9 µM (inactive),> 100 µM (inactive),–,> 100 µM (inactive),> 100,67.3 µM (inactive),> 100 µM (inactive),> 100 µM (inactive),> 100 µM (inactive),> 100 µM (inactive)
O=C(O)C(CO)NC(=O)n1c2ccccc2c2ccccc21 (stereo not drawn),> 100 µM (inactive),> 100 µM (inactive),> 100 µM (inactive),> 100 µM (inactive),> 100 µM (inactive),> 100 µM (inactive),> 100 µM (inactive),> 100 µM (inactive),> 100 µM (inactive),> 100,> 100 µM (inactive),> 100 µM (inactive),> 100 µM (inactive),> 100 µM (inactive),–
Cn1cnc([N+](=O)[O-])c1Sc1nnc(C(F)(F)F)n1C,37.5 µM (inactive),> 100 µM (inactive),18.9 µM (inactive),> 100 µM (inactive),22 µM (inactive),18.5 µM (inactive),> 100 µM (inactive),> 100 µM (inactive),24.9 µM (inactive),–,14.2 µM (inactive),18.7 µM (inactive),39.4 µM (inactive),24.9 µM (inactive),17.1 µM (inactive)
COC(=O)C(Cl)=C1CC1,45.2 µM (inactive),> 100 µM (inactive),39.7 µM (inactive),> 100 µM (inactive),26.7 µM (inactive),14.3 µM (inactive),> 100 µM (inactive),> 100 µM (inactive),> 100 µM (inactive),20.4,16 µM (inactive),22.9 µM (inactive),26.1 µM (inactive),30.3 µM (inactive),–
N#CC1CCCCCCCCCCC(=O)N(CCCl)C1=O (stereo not drawn),> 100 µM (inactive),> 100 µM (inactive),> 100 µM (inactive),> 100 µM (inactive),> 100 µM (inactive),> 100 µM (inactive),> 100 µM (inactive),> 100 µM (inactive),–,–,> 100 µM (inactive),> 100 µM (inactive),> 100 µM (inactive),> 100 µM (inactive),> 100 µM (inactive)
CCOC(C)C(/C=N/NC(N)=S)=NNC(N)=S (stereo not drawn) [GLOXAZONE],> 100 µM (inactive),> 100 µM (inactive),> 100 µM (inactive),> 100 µM (inactive),–,< 0.0208 µM (active),1.64 µM (inactive),> 100 µM (inactive),–,> 100,0.0865 µM (active),> 74.1 µM (inactive),> 100 µM (inactive),> 100 µM (inactive),1.07 µM (active)
CCCCCCCCCCCCCCCCOCC(CP(=O)([O-])OCC[n+]1ccccc1)OC (stereo not drawn),4.05 µM (inactive),11.6 µM (inactive),12.4 µM (inactive),10.1 µM (inactive),12.6 µM (inactive),8.2 µM (inactive),4.38 µM (inactive),17.7 µM (inactive),4.02 µM (inactive),–,11.4 µM (inactive),17 µM (inactive),14 µM (inactive),14.7 µM (inactive),–
